Results published in the NIST ThermoML archive (doi:10.1016/j.tca.2005.10.007).

Assay: xn = mol fraction of the nth substance listed
Conditions: 101 kPa, Liquid, Vibrating tube method

CC(O)CN (configuration not stated) [1-amino-2-propanol] + O
mass density [kg/m3]
Conditions	283.15 K	288.15 K	293.15 K	298.15 K	303.15 K	308.15 K	313.15 K	318.15 K
x2 = 0.0438	970.22	966.31	962.38	958.41	954.42	950.39	946.34	942.26
x2 = 0.0801	971.77	967.87	963.94	959.99	956.01	952	947.96	943.89
x2 = 0.1269	974.08	970.22	966.31	962.38	958.41	954.42	950.39	946.33
x2 = 0.1584	975.52	971.66	967.77	963.84	959.89	955.9	951.88	947.83
x2 = 0.2003	977.67	973.82	969.94	966.03	962.09	958.11	954.1	950.06
x2 = 0.2999	983.38	979.58	975.73	971.85	967.94	963.99	960	955.98
x2 = 0.3498	986.51	982.72	978.89	975.02	971.12	967.18	963.21	959.19
x2 = 0.3999	989.63	985.84	982.02	978.16	974.27	970.34	966.36	962.35
x2 = 0.4499	993.04	989.26	985.45	981.59	977.71	973.78	969.81	965.8
x2 = 0.4968	996.4	992.66	988.85	985	981.12	977.19	973.23	969.22
x2 = 0.5122	997.62	993.86	990.05	986.21	982.33	978.4	974.44	–
x2 = 0.5501	1000.3	996.55	992.74	988.89	985.01	981.09	977.12	–
x2 = 0.6001	1004.18	1000.45	996.65	992.81	988.93	985.01	981.05	–
x2 = 0.6501	1007.83	1004.09	1000.3	996.47	992.61	988.7	984.75	–
x2 = 0.7	1011.17	1007.46	1003.71	999.92	996.09	992.22	988.3	–
x2 = 0.7501	1013.81	1010.2	1006.54	1002.84	999.1	995.31	991.48	–
x2 = 0.8	1014.93	1011.54	1008.08	1004.58	1001.02	997.41	993.74	–
x2 = 0.84	1014.28	1011.22	1008.08	1004.86	1001.58	998.22	994.79	–
x2 = 0.88	1011.59	1009.04	1006.38	1003.61	1000.73	997.76	994.67	–
x2 = 0.92	1007.29	1005.41	1003.37	1001.17	998.83	996.33	993.7	–
x2 = 0.96	1002.39	1001.24	999.86	998.26	996.47	994.49	992.33	–
